Tests used:
immobilized hIL-2 = target: T1, immobilized hIL-2 (Homo sapiens, UniProt P60568); assay: Bio-layer interferometry binding to immobilized hIL-2; settings: biotinylated hIL-2 immobilized
T1 construct: The full hIL-2 cytokine (residues 1-133) and the extracellular domains; hexahistidine (C); made in house; host or cells: HEK 293F
Protocol: (§1) Bio-layer interferometry binding studies. […] Less than 5 signal units (nm) of receptor was immobilized to minimize mass transfer effects. […] An irrelevant protein was included in a reference well to subtract non-specific binding. Surface regeneration for all interactions was conducted using a 15 second exposure to 0.1 M glycine pH 3.0. Experiments were carried out in PBSA (phosphate-buffered saline, pH 7.3 plus 0.1% bovine serum albumin (BSA, Thermo Fisher Scientific)) at 25° C. Data was visualized and processed using the Octet® Data Analysis software version 7.1 (Molecular Devices). Equilibrium titration curve fitting and KD value determination was implemented using GraphPad Prism, assuming all binding interactions to be first order. Experiments were reproduced two times with similar results.
(§2) The binding affinities were also evaluated using bio-layer interferometry on an OCTET® instrument with biotinylated hIL-2 immobilized on a streptavidin-coated tip (FIG. 6B). […] Bio-layer interferometry based binding studies were also conducted to assess the interaction between F5111 IC LN15 and the IL-2Rα and IL-2Rβ receptor chains, to ensure that the single-chain antibody/cytokine fusion was biased toward engagement of IL-2Rα (which is highly expressed on TReg cells but not effector cells) compared with IL-2Rβ.

IL-2Rα^− YT-1 cells = assay: YT-1 cell STAT5 phosphorylation, IL-2Rα− cells; type: cell-based, human; settings: flow cytometry, 20 minutes stimulation
Protocol: (§3) YT-1 cell STAT5 phosphorylation studies. Approximately 2×10^5 IL-2Rα^− YT-1 or IL-2Rα^+ YT-1 cells were plated in each well of a 96-well plate and re-suspended in RPMI complete medium containing serial dilutions of the indicated treatments. Cytokine/antibody complexes were formed by incubating a 1:1 molar ratio of F5111 antibody to hIL-2 for 1 hour at 37° C. Cells were stimulated for 20 minutes at 37° C. and immediately fixed by addition of formaldehyde to 1.5% and 10 minute incubation at room temperature. Permeabilization of cells was achieved by resuspension in ice-cold 100% methanol for 30 minutes at 4° C. Fixed and permeabilized cells were washed twice with FACS buffer (phosphate-buffered saline [PBS] pH 7.2 containing 0.1% BSA [Thermo Fisher Scientific]) and incubated with Alexa Fluor® 647-conjugated anti-STAT5 pY694 (BD Biosciences) diluted in FACS buffer for 2 hours at room temperature. Cells were then washed twice in FACS buffer and mean fluorescence intensity (MFI) was determined on a CytoFLEX flow cytometer (Beckman-Coulter). Dose-response curves were fitted to a logistic model and half-maximal effective concentrations (EC50s) were calculated using GraphPad Prism data analysis software after subtraction of the mean fluorescence intensity (MFI) of unstimulated cells and normalization to the maximum signal intensity.
(§4) A cell signaling assay was performed on YT-1 human NK cells with or without IL-2Rα.

human IL-2 (hIL-2) = target: T2, human IL-2 (hIL-2) (Homo sapiens, UniProt P60568); assay: Yeast surface binding study, yeast-displayed hIL-2, flow cytometry; settings: yeast surface-displayed hIL-2
T2 construct: hIL-2 (residues 1-133) or mIL-2 (residues 1-149) were cloned into the pCT302 vector; made in house; host or cells: yeast (surface display)
T2 sequence (P60568 21-153): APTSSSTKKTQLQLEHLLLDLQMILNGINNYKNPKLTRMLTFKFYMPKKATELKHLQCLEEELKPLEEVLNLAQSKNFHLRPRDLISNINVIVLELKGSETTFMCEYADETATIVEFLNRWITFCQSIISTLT
Protocol: Yeast surface binding studies. For antibody binding studies on yeast, hIL-2 (residues 1-133) or mIL-2 (residues 1-149) were cloned into the pCT302 vector and presented on the surface of yeast, as described previously (Boder et al., Nat. Biotechnol., 15(6): 553-557 (1997)). […] Cells were then washed and stained with a 1:200 dilution of Alexa647-conjugated streptavidin (Thermo) in PBSA for 15 minutes at 4° C. After a final wash, cells were analyzed for antibody binding using a CytoFLEX flow cytometer (Beckman Coulter). Background-subtracted and normalized binding curves were fitted to a first-order binding model and equilibrium dissociation constant (KD) values were determined using GraphPad Prism. Studies were performed three times with similar results.
A rapid small-scale HEK 293F cell transfection assay was developed to optimize immunocytokine expression. Cells were transfected in 6-well plates with predefined ratios of heavy chain (HC) and IL-2-fused light chain (LC) plasmid DNA. After a 3-day incubation, secreted protein was captured from the supernatant with protein G resin, eluted with 0.1 M glycine pH 2.0, and analyzed via SDS-PAGE. […]
(§5) The binding affinities were also evaluated using bio-layer interferometry on an OCTET® instrument with biotinylated hIL-2 immobilized on a streptavidin-coated tip (FIG. 6B). […]

IL-2Rα = target: T3, IL-2Rα (Homo sapiens, UniProt P01589); assay: Bio-layer interferometry binding to immobilized IL-2Rα
T3 construct: the extracellular domains of the hIL-2Rα (residues 1-214) and hIL-2Rβ (residues 1-214) receptor subunits; hexahistidine (C); made in house; host or cells: HEK 293F
T3 sequence (P01589 22-235): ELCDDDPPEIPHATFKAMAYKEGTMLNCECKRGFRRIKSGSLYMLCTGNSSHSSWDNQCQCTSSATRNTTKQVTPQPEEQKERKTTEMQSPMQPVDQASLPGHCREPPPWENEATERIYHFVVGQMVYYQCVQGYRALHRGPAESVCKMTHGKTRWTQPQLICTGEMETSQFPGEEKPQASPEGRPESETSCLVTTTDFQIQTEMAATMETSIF
Protocol: as §1, §5
(§6) Additionally, binding interactions between F5111 IC LN25 and LN35 with the human IL-2Rα (hIL-2Rα) and hIL-2Rβ subunits were measured using bio-layer interferometry on an Octet® instrument by immobilizing biotinylated hIL-2Rα and IL-2Rβ on streptavidin-coated tips.

IL-2Rβ = target: T4, IL-2Rβ (Homo sapiens, UniProt P14784); assay: Bio-layer interferometry binding to immobilized IL-2Rβ
T4 construct: the extracellular domains of the hIL-2Rα (residues 1-214) and hIL-2Rβ (residues 1-214) receptor subunits; hexahistidine (C); made in house; host or cells: HEK 293F
T4 sequence (P14784 27-240): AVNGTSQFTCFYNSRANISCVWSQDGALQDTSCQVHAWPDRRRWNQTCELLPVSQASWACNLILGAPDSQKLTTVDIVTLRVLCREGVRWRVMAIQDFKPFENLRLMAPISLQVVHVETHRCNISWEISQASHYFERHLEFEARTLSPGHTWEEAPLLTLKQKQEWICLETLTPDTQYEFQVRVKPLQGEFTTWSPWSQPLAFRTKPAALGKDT
Protocol: as §1, §2, §6

IL-2Rα^+ YT-1 cells = assay: YT-1 cell STAT5 phosphorylation, IL-2Rα+ cells; type: cell-based, human; settings: for STAT5 activation on IL-2Rα^+ YT-1 cells: flow cytometry, 20 minutes stimulation; for selective activation of IL-2Rα^+ TReg-like cells over IL-2Rα^− TEff-like cells (bias): YT-1 cells with or without IL-2Rα
Protocol: as §3, §4

[1] = tested on: CD4+ T cells from C57BL/6 mice; assay: pSTAT5 expression in C57BL/6 CD4+ T cells; type: cell-based, mouse
Protocol: FIG. 22 is a graph showing the results of B6 CD4+ cells stimulation with titrated encapsulated particle doses or equivalent free doses of F5111 for different lengths of time, and the analysis of pSTAT5 expression using flow cytometry. A dose titration for free and MP-loaded F5111 IC LN35 was observed, with maximum pSTAT5 expression achieved after 1 hour of stimulation.
To evaluate the functionality of F5111 IC-loaded particles, mouse CD4+ T cells were stimulated with F5111 IC-loaded microparticles to identify an optimal stimulation time for maximum pSTAT5 expression, and pSTAT5 expression was compared to that of cells stimulated with free F5111 IC. CD4+ T cells were isolated from C57BL/6 mice and incubated with various doses of F5111 IC-loaded microparticles or equivalent doses of free F5111 IC for 20, 40, 60, or 120 minutes.

[2] = tested on: CD4^+ T cells from B6 mice; assay: In vitro FOXP3+ cell expansion in B6 CD4+ T cells; type: cell-based, mouse; settings: 3 days
Protocol: F5111 IC LN35-loaded microparticles or free F5111 IC LN35 (at a dose equivalent to the particle loading dose) were incubated with CD4+ cells from B6 mice for 3 days, and cells were analyzed for FOXP3 expression via flow cytometry.
To determine whether F5111 IC-encapsulated MPs could induce in vitro TReg cell expansion, CD4^+ T cells were isolated from the spleens of B6 mice and incubated with unconjugated F5111 IC or F5111 IC-loaded PLGA MPs for 3 days. Cells were then stained for CD4, CD25, and FOXP3, and analyzed using flow cytometry.

[3] = tested on: human PBMCs (TReg cells, CD8^+ and CD4^+ effector T cells); assay: Human PBMC STAT5 phosphorylation in T cell subsets; type: cell-based; settings: human PBMCs from healthy donor whole blood
Protocol: Human PBMC STAT5 phosphorylation studies. Human PBMCs were isolated from whole blood of healthy donors via Ficoll gradient following manufacturer protocols and then incubated with ACK lysis buffer for removal of red blood cells. Approximately 1×10^6 human PBMCs were plated in each well of a 96-well plate and re-suspended in RPMI complete medium containing serial dilutions of the indicated treatments. Cytokine/antibody complexes were formed by incubating a 1:1 molar ratio of F5111 antibody to hIL-2 for 1 hour at 37° C. Cells were stimulated for 20 minutes at 37° C. and immediately fixed by addition of 1X Fix/Perm Buffer (BD Biosciences) and 50 minute incubation at 4° C. Permeabilization of cells was achieved by resuspension in Perm Buffer III (BD Biosciences) overnight at −20° C. […] Cells were then washed twice in FACS buffer and MFI was determined on a CytoFLEX flow cytometer (Beckman-Coulter). Dose-response curves were fitted to a logistic model and half-maximal effective concentrations (EC50s) were calculated using GraphPad Prism data analysis software after subtraction of the mean fluorescence intensity (MFI) of unstimulated cells and normalization to the maximum signal intensity. […]

T1 sequence (P60568 21-153): as the sequence (P60568 21-153) above

| Substance | binding affinity for hIL-2 relative to F5111 Ab (immobilized hIL-2) | STAT5 activation on IL-2Rα^− YT-1 cells (IL-2Rα^− YT-1 cells) | binding affinity for hIL-2 relative to F5111 Ab (human IL-2 (hIL-2)) | binding to IL-2Rα compared to free IL-2 (IL-2Rα) | binding to IL-2Rβ compared to free IL-2 (IL-2Rβ) | STAT5 activation on IL-2Rα^+ YT-1 cells (IL-2Rα^+ YT-1 cells) | selective activation of IL-2Rα^+ TReg-like cells over IL-2Rα^− TEff-like cells (bias) (IL-2Rα^+ YT-1 cells) | stimulation time of maximum pSTAT5 activation [1] | activation (pSTAT5) of CD4^+ T cells ([1]; various doses, 20, 40, 60, or 120 minutes) | expansion of FOXP3+ cells compared to untreated cells [2] | STAT5 activation of TReg cells compared to CD8^+ and CD4^+ effector T cells [3] |
| --- | --- | --- | --- | --- | --- | --- | --- | --- | --- | --- | --- |
| F5111 IC LN15: immunocytokine: hIL-2 fused to N-terminus of F5111 antibody light chain by 15-amino acid (Gly4Ser)3 linker | significant reduction in binding affinity | dramatically reduced | significant reduction in binding affinity | equal potency to the free IL-2 cytokine | significantly impaired binding | only mildly impaired | – | – | – | – | – |
| F5111 IC LN25: immunocytokine: hIL-2 fused to N-terminus of F5111 antibody light chain by 25-amino acid (Gly4Ser)5 linker | – | immeasurable | – | – | significant reduction in the binding affinity | sub-nanomolar concentrations | greater bias than F5111 IC LN15 and the hIL-2/F5111 complex | – | – | – | – |
| F5111 IC LN35: immunocytokine: hIL-2 fused to N-terminus of F5111 antibody light chain by 35-amino acid (Gly4Ser)7 linker | – | immeasurable | – | – | significant reduction in the binding affinity | sub-nanomolar concentrations | greater bias than F5111 IC LN15 and the hIL-2/F5111 complex | 60 minutes | dose-dependent manner | expanded FOXP3+ cells | significantly more potent activation |
